Experimental data: patent publication US9193720B2, “Pyridin-3-yl acetic acid derivatives as inhibitors of human immunodeficiency virus replication” (priority 2014, dated 2015)

These compounds were tested on NL-RLuc virus (assay: Inhibition of HIV Replication (NL-RLuc luciferase reporter virus in MT-2 cells)). Conditions: Human immunodeficiency virus 1, MT2, 120 h.
Assay type: cell-based
Description: Inhibition of HIV Replication:
A recombinant NL-RLuc proviral clone was constructed in which a section of the nef gene from NL4-3 was replaced with the Renilla Luciferase gene. This virus is fully infectious and can undergo multiple cycles of replication in cell culture. In addition, the luciferous reporter provides a simple and easy method for quantitating the extent of virus growth and consequently, the antiviral activity of test compounds. The plasmid pNLRLuc contains the proviral NL-Rluc DNA cloned into pUC18 at the PvuII site. The NL-RLuc virus was prepared by transfection of 293T cells with the plasmid pNLRLuc. Transfections were performed using the LipofectAMINE PLUS kit from Invitrogen (Carlsbad, Calif.) according to the manufacturer and the virus generated was titered in MT-2 cells. For susceptibility analyses, the titrated virus was used to infect MT-2 cells in the presence of compound, and after 5 days of incubation, cells were processed and quantitated for virus growth by the amount of expressed luciferase. Assay media was RPMI 1640 supplemented with 10% heat inactivated fetal bovine serum (FBS), 100 units/ml penicillin G/100 units/ml streptomycin, 10 mM HEPES buffer pH 7.55 and 2 mM L-glutamine. The results from at least 2 experiments were used to calculate the EC50 values. Luciferase was quantitated using the Dual Luciferase kit from Promega (Madison, Wis.). Susceptibility of viruses to compounds was determined by incubation in the presence of serial dilutions of the compound. The 50% effective concentration (EC50) was calculated by using the exponential form of the median effect equation where (Fa)=1/[1+(ED50/drug conc.)^m] (Johnson V A, Byington R T. Infectivity Assay. In Techniques in HIV Research. ed. Aldovini A, Walker B D. 71-76. New York: Stockton Press. 1990).

Row | Structure (SMILES) | EC50 [nM]
1 | Cc1nc(C)c([C@H](OC(C)(C)C)C(=O)O)c(N2CCC(C)(C)CC2)c1-c1ccc(OCc2cnc(Cl)s2)cc1 [Example 47, (S)-2-(tert-butoxy)-2-(5-(4-((2-chlorothiazol-5-yl)methoxy)phenyl)-4-(4,4-dimethylpiperidin-1-yl)-2,6-dimethylpyridin-3-yl)acetic acid] | 18
2 | Cc1nc(C)c(CCOc2ccc(-c3c(C)nc(C)c([C@H](OC(C)(C)C)C(=O)O)c3N3CCC(C)(C)CC3)cc2)s1 [Example 48, (S)-2-(tert-butoxy)-2-(4-(4,4-dimethylpiperidin-1-yl)-5-(4-(2-(2,4-dimethylthiazol-5-yl)ethoxy)phenyl)-2,6-dimethylpyridin-3-yl)acetic acid] | 1
3 | Cc1nc(C)c([C@H](OC(C)(C)C)C(=O)O)c(N2CCC(C)(C)CC2)c1-c1ccc(OCC(C)(C)c2ccc(F)cc2)cc1 [Example 49, (S)-2-(tert-butoxy)-2-(4-(4,4-dimethylpiperidin-1-yl)-5-(4-(2-(4-fluorophenyl)-2-methylpropoxy)phenyl)-2,6-dimethylpyridin-3-yl)acetic acid] | 34
4 | Cc1nc(C)c([C@H](OC(C)(C)C)C(=O)O)c(N2CCC(C)(C)CC2)c1-c1ccc(OCCc2cc(F)c(F)cc2F)cc1 [Example 50, (S)-2-(tert-butoxy)-2-(4-(4,4-dimethylpiperidin-1-yl)-2,6-dimethyl-5-(4-(2,4,5-trifluorophenethoxy)phenyl)pyridin-3-yl)acetic acid] | 3
5 | Cc1nc(C)c([C@H](OC(C)(C)C)C(=O)O)c(N2CCC(C)(C)CC2)c1-c1ccc(OCCc2c(F)c(F)cc(F)c2F)cc1 [Example 51, (S)-2-(tert-butoxy)-2-(4-(4,4-dimethylpiperidin-1-yl)-2,6-dimethyl-5-(4-(2,3,5,6-tetrafluorophenethoxy)phenyl)pyridin-3-yl)acetic acid] | 6
6 | Cc1ccc(CCOc2ccc(-c3c(C)nc(C)c([C@H](OC(C)(C)C)C(=O)O)c3N3CCC(C)(C)CC3)cc2)s1 [Example 52, (S)-2-(tert-butoxy)-2-(4-(4,4-dimethylpiperidin-1-yl)-2,6-dimethyl-5-(4-(2-(5-methylthiophen-2-yl)ethoxy)phenyl)pyridin-3-yl)acetic acid] | 5
7 | Cc1noc(C)c1CCOc1ccc(-c2c(C)nc(C)c([C@H](OC(C)(C)C)C(=O)O)c2N2CCC(C)(C)CC2)cc1 [Example 53, (S)-2-(tert-butoxy)-2-(5-(4-(2-(3,5-dimethylisoxazol-4-yl)ethoxy)phenyl)-4-(4,4-dimethylpiperidin-1-yl)-2,6-dimethylpyridin-3-yl)acetic acid] | 2
8 | Cc1n[nH]c(C)c1CCOc1ccc(-c2c(C)nc(C)c([C@H](OC(C)(C)C)C(=O)O)c2N2CCC(C)(C)CC2)cc1 [Example 54, (S)-2-(tert-butoxy)-2-(5-(4-(2-(3,5-dimethyl-1H-pyrazol-4-yl)ethoxy)phenyl)-4-(4,4-dimethylpiperidin-1-yl)-2,6-dimethylpyridin-3-yl)acetic acid] | 8
9 | Cc1ccc(-c2c(C)nc(C)c([C@H](OC(C)(C)C)C(=O)O)c2N2CCC(C)(C)CC2)cc1OCc1ccccc1 [Example 55, (S)-2-(5-(3-(benzyloxy)-4-methylphenyl)-4-(4,4-dimethylpiperidin-1-yl)-2,6-dimethylpyridin-3-yl)-2-(tert-butoxy)acetic acid] | 93
10 | Cc1nc(C)c([C@H](OC(C)(C)C)C(=O)O)c(N2CCC(C)(C)CC2)c1-c1ccc(OCc2ccncc2)cc1 [Example 56, (S)-2-(tert-butoxy)-2-(4-(4,4-dimethylpiperidin-1-yl)-2,6-dimethyl-5-(4-(pyridin-4-ylmethoxy)phenyl)pyridin-3-yl)acetic acid] | 2
11 | COc1ncc(-c2c(C)nc(C)c([C@H](OC(C)(C)C)C(=O)O)c2N2CCC(C)(C)CC2)cn1 [Example 57, (S)-2-(tert-butoxy)-2-(4-(4,4-dimethylpiperidin-1-yl)-5-(2-methoxypyrimidin-5-yl)-2,6-dimethylpyridin-3-yl)acetic acid] | 217
12 | Cc1nc(C)c([C@H](OC(C)(C)C)C(=O)O)c(N2CCC(C)(C)CC2)c1-c1cnc(OCCc2ccc(F)cc2)nc1 [Example 58, (S)-2-(tert-butoxy)-2-(4-(4,4-dimethylpiperidin-1-yl)-5-(2-(4-fluoro-phenethoxy)pyrimidin-5-yl)-2,6-dimethylpyridin-3-yl)acetic acid] | 9
13 | CCCOc1ccc(-c2c(C)nc(C)c([C@H](OC(C)(C)C)C(=O)O)c2N2CCC(C)(C)CC2)cc1F [Example 59, (S)-2-(tert-butoxy)-2-(4-(4,4-dimethylpiperidin-1-yl)-5-(3-fluoro-4-propoxyphenyl)-2,6-dimethylpyridin-3-yl)acetic acid] | 21
14 | COc1cc(-c2c(C)nc(C)c([C@H](OC(C)(C)C)C(=O)O)c2N2CCC(C)(C)CC2)cc(OC)c1OC [Example 60, (S)-2-(tert-butoxy)-2-(4-(4,4-dimethylpiperidin-1-yl)-2,6-dimethyl-5-(3,4,5-trimethoxyphenyl)pyridin-3-yl)acetic acid] | 262
15 | COc1cc(-c2c(C)nc(C)c([C@H](OC(C)(C)C)C(=O)O)c2N2CCC(C)(C)CC2)ccc1C [Example 61, (S)-2-(tert-butoxy)-2-(4-(4,4-dimethylpiperidin-1-yl)-5-(3-methoxy-4-methylphenyl)-2,6-dimethylpyridin-3-yl)acetic acid] | 44
16 | COc1cccc(-c2c(C)nc(C)c([C@H](OC(C)(C)C)C(=O)O)c2N2CCC(C)(C)CC2)c1 [Example 62, (S)-2-(tert-butoxy)-2-(4-(4,4-dimethylpiperidin-1-yl)-5-(3-methoxyphenyl)-2,6-dimethylpyridin-3-yl)acetic acid] | 166
17 | Cc1nc(C)c([C@H](OC(C)(C)C)C(=O)O)c(N2CCC(C)(C)CC2)c1-c1ccc(OC(C)C)c(Cl)c1 [Example 63, (S)-2-(tert-butoxy)-2-(5-(3-chloro-4-isopropoxyphenyl)-4-(4,4-dimethylpiperidin-1-yl)-2,6-dimethylpyridin-3-yl)acetic acid] | 119
18 | CCCOc1c(C)cc(-c2c(C)nc(C)c([C@H](OC(C)(C)C)C(=O)O)c2N2CCC(C)(C)CC2)cc1C [Example 64, (S)-2-(tert-butoxy)-2-(5-(3,5-dimethyl-4-propoxyphenyl)-4-(4,4-dimethylpiperidin-1-yl)-2,6-dimethylpyridin-3-yl)acetic acid] | 26
19 | CCOc1ccc(-c2c(C)nc(C)c([C@H](OC(C)(C)C)C(=O)O)c2N2CCC(C)(C)CC2)cc1F [Example 65, (S)-2-(tert-butoxy)-2-(4-(4,4-dimethylpiperidin-1-yl)-5-(4-ethoxy-3-fluorophenyl)-2,6-dimethylpyridin-3-yl)acetic acid] | 44
20 | COc1cc(-c2c(C)nc(C)c([C@H](OC(C)(C)C)C(=O)O)c2N2CCC(C)(C)CC2)ccc1F [Example 66, (S)-2-(tert-butoxy)-2-(4-(4,4-dimethylpiperidin-1-yl)-5-(4-fluoro-3-methoxyphenyl)-2,6-dimethylpyridin-3-yl)acetic acid] | 141
21 | Cc1nc(C)c([C@H](OC(C)(C)C)C(=O)O)c(N2CCC(C)(C)CC2)c1-c1ccc(OCCc2ccc(F)cc2)nc1 [Example 67, (S)-2-(tert-butoxy)-2-(4-(4,4-dimethylpiperidin-1-yl)-6′-(4-fluorophenethoxy)-2,6-dimethyl-[3,3′-bipyridin]-5-yl)acetic acid] | 7
22 | Cc1nc(C)c([C@H](OC(C)(C)C)C(=O)O)c(N2CCC(C3CC3)C2)c1-c1ccc(OCCc2ccc(F)cc2)cc1 (stereo partly drawn) [Example 68, (2S)-2-(tert-butoxy)-2-(4-(3-cyclopropylpyrrolidin-1-yl)-5-(4-(4-fluorophenethoxy)phenyl)-2,6-dimethylpyridin-3-yl)acetic acid] | 42
23 | Cc1nc(C)c([C@H](OC(C)(C)C)C(=O)O)c(N2CC(F)(F)C2)c1-c1ccc(OCCc2ccc(F)cc2)cc1 [Example 69, (S)-2-(tert-butoxy)-2-(4-(3,3-difluoroazetidin-1-yl)-5-(4-(4-fluorophenethoxy)phenyl)-2,6-dimethylpyridin-3-yl)acetic acid] | 1990
24 | Cc1nc(C)c([C@H](OC(C)(C)C)C(=O)O)c(N2CC(C)(C)C2)c1-c1ccc(OCCc2ccc(F)cc2)cc1 [Example 70, (S)-2-(tert-butoxy)-2-(4-(3,3-dimethylazetidin-1-yl)-5-(4-(4-fluorophenethoxy)phenyl)-2,6-dimethylpyridin-3-yl)acetic acid] | 3050
25 | Cc1nc(C)c([C@H](OC(C)(C)C)C(=O)O)c(N2CC(C(C)C)C2)c1-c1ccc(OCCc2ccc(F)cc2)cc1 [Example 71, (S)-2-(tert-butoxy)-2-(5-(4-(4-fluoro-phenethoxy)phenyl)-4-(3-isopropylazetidin-1-yl)-2,6-dimethylpyridin-3-yl)acetic acid] | 3190
26 | Cc1nc(C)c([C@H](OC(C)(C)C)C(=O)O)c(N2CCC(c3ccccc3)CC2)c1-c1ccc(OCCc2ccc(F)cc2)cc1 [Example 72, (S)-2-(tert-butoxy)-2-(5-(4-(4-fluorophenethoxy)phenyl)-2,6-dimethyl-4-(4-phenylpiperidin-1-yl)pyridin-3-yl)acetic acid] | 744
